Source: patent US4709083A, “Method of making boron analogues” (The United States of America as represented by the …, priority 1986, dated 1987)

Key:
serum cholesterol = experiment: hyperlipidemic screen: serum cholesterol levels (modified Liebermann-Burchard reaction); type: in vivo; conditions: male CF1 mice, intraperitoneal, 20 mg/kg day, 1% aqueous carboxymethylcellulose
Description: (§1) A hyperlipidemic screen was performed using the compounds of Examples 2 and 4. The compounds were suspended in 1% aqueous carboxymethylcellulose and adimistered to male CF1 mice intraperitoneally for 16 days at a dosage of 20 mg/kg day.
(§2) On days 9 and 16 blood was obtained by tail vein bleeding and the serum separated by centrifugation for 3 min.
(§3) Serum cholesterol levels were determined using a modification of the Liebermann-Burchard reaction, see Ness et al, Clin. Chim. Acta, v. 10, p. 229, (1964). Serum triglicerides were determined using the Fisher, Hycel Triglyceride Test Kit, a commercially available kit.

serum triglyceride = experiment: hyperlipidemic screen: serum triglycerides (Fisher, Hycel Triglyceride Test Kit); type: in vivo; conditions: male CF1 mice, intraperitoneal, 20 mg/kg day, 1% aqueous carboxymethylcellulose
Description: as §1, §2, §3

Compound	Serum cholesterol inhibition %, 9th Day (serum cholesterol) [%]	Serum cholesterol inhibition %, 16th Day (serum cholesterol) [%]	Triglyceride inhibition %, 16th Day (serum triglyceride) [%]
[BH3-][N+](C)(C)CCOC(C)=O [Example 2, 2 (Acetoxyethyl)dimethylamine-borane]	28	41	32
[BH3-][N+](C)(C)CCOC(=O)c1ccccc1 [Example 4, 2-(benzoyloxyethyl)dimethylamine-Borane]	31	37	31
